Assay results: ChEMBL document CHEMBL1125839, “Synthesis and pharmacological evaluation of ether and related analogues of delta 8-, delta 9-, and delta 9,11-tetrahydrocannabinol” (J Med Chem, 1991)

Legend:
Mus musculus [1] = assay: The compound was tested in vivo for ring immobility in mice; format: functional
Mus musculus [2] = assay: The compound was tested in vivo for tail-flick latency in mice; format: functional
Mus musculus [3] = assay: The compound was tested in vivo for hypothermic activity in mice; format: functional
Mus musculus [4] = assay: The compound was tested in vivo for locomotor activity in mice; format: functional
Cannabinoid receptor [5] = target: T1, Cannabinoid receptor (Rattus norvegicus, UniProt Q9QZN9+P20272); assay: The compound was tested in vitro for binding activity against THC cannabinoid receptor site, using 3H-CP-55940 as the radioligand.; format: protein assay
Cannabinoid receptor [6] = target: T1, Cannabinoid receptor; assay: The compound was tested in vitro for binding activity against THC cannabinoid receptor site, using 3H-CP-55940 as the radioligand; format: protein assay

SMILES	ED50 (Mus musculus [1]) [mg/kg]	MPE50 (Mus musculus [2]) [mg/kg]	ED50 (Mus musculus [3]) [mg/kg]	ED50 (Mus musculus [4]) [mg/kg]	IC50 (Cannabinoid receptor [5]) [µM]	IC50 (Cannabinoid receptor [6]) [µM]
C=C1CC[C@@H]2[C@@H](C1)c1c(O)cc(CCCCC)cc1OC2(C)C	24	5.4	56	15	–	–
CCCCCc1cc(OCCN2CCOCC2)c2c(c1)OC(C)(C)[C@@H]1CC=C(C)C[C@@H]21	118	>100	> 100	> 100	4.3	–
CCCCCc1cc(OC)c2c(c1)OC(C)(C)[C@@H]1CCC(C)=C[C@@H]21	17	116	267	> 100	–	10
CCCCCc1cc(OC)c2c(c1)OC(C)(C)[C@@H]1CC=C(C)C[C@@H]21	> 100	33	> 100	> 100	–	3.2
C=C1CC[C@@H]2[C@@H](C1)c1c(O)cc(CCC)cc1OC2(C)C	> 30	15	> 30	20	–	1.4
C=C1C[C@H]2c3c(O)cc(CCCCC)cc3OC(C)(C)[C@@H]2C[C@H]1O	63	25	50	20	–	1.2
CCCCCc1cc(O)c2c(c1)OC(C)(C)[C@@H]1CC=C(C)C[C@@H]21 [DELTA-8-TETRAHYDROCANNABINOL]	5.2	1.5	–	1.9	–	–
CCCCCc1cc(O)c2c(c1)OC(C)(C)[C@@H]1CCC(C)=C[C@@H]21 [DRONABINOL]	1.5	1.4	1.4	1	–	–
